Assay results taken from patent publication US20070135514A1, “Methods for the identification of agents for the treatment of seizures, neurological diseases, endocrinopathies and hormonal diseases” (priority 2002, published 2007).
Read-outs that look alike come from different tables or passages of the source.

What was measured:
hSV2A = target: T1, hSV2A (Homo sapiens, UniProt Q7L0J3); experiment: [3H]ucb 30889 binding to hSV2A expressed in COS-7 cells; settings: for competition with [3H]ucb 30889 for binding to SV2A: concentrations up to 100 μM
T1 construct: expressed in transfected cells; host or cells: COS-7 cells, transient transfection (pDEST 12.2 Gateway vector, CMV promoter)

[1] = target: T2, levetiracetam binding site (LBS) (Rattus norvegicus, UniProt Q02563); settings: cited from earlier work
T2 construct: host or cells: crude rat brain membranes (Noyer et al. 1995; Gillard et al. 2003)

audiogenic seizures = settings: in vivo; cited from earlier work
[2] = test system: refractory partial seizures; settings: adjunctive therapy; cited from earlier work
soluble SV2A = target: T3, soluble SV2A (Rattus norvegicus, UniProt Q02563); experiment: [3H]ucb 30889 binding to n-dodecyl-β-D-maltoside solubilized SV2A; settings: soluble protein in n-dodecyl-β-D-maltoside; read-out: KD (Scatchard analysis)
T3 construct: from tissue; host or cells: supernatant of detergent-solubilised rat brain membranes
Description: The rat brain membranes were diluted in a solubilization buffer (Tris-HCl 20 mM pH 7.4, 0.25 M sucrose, protease inhibitors Complete Roche) containing n-dodecyl-β-D-maltoside 15 mM and incubated for two hours at 4° C. Subsequently, the solution was centrifuged at 4° C. for one hour at 100,000 g. The soluble SV2A was found in the supernatant as detected by western blot using anti-SV2A antibodies (FIG. 21A). The supernatants were incubated with [^3H]ucb 30889 as described. […] Thus, the binding properties of the soluble SV2A are similar to the membrane-bound native form indicative that the soluble protein maintains its native structural conformation in n-dodecyl-β-D-maltoside.

PC12bs cells (LBS) = experiment: Intact cell [3H]ucb 30889 binding in PC12bs cells; parameters: species or system rat; settings: identical conditions
Description: In a binding experiment, specific binding was measured of [^3H]ucb 30889 to COS-7 cells that have either been transfected with SV2A-12.2, or as controls, a β-gal expressing vector, or cells that have not been transfected (FIG. 13). […] The cells were incubated at 4° C. for 2 hours, and then washed rapidly with ice-cold PBS. The cells were lysed on the plate, transferred to scintillation vials with scintillation fluid and counted for ^3H decay emission. […] In identical intact cell binding experiments using PC12bs cells, known to express the LBS, a 1.5 to 2-fold difference in CPM between the ‘hot’ and ‘hot+cold’ samples is typically seen, as compared to the 5-fold difference seen here.

hSV2C = target: T4, hSV2C (Homo sapiens, UniProt Q496J9); experiment: [3H]ucb 30889 binding to hSV2C expressed in COS-7 cells; settings: transient COS-7 system
T4 construct: expressed in transfected cells; host or cells: COS-7 cells, transient expression
T4 sequence (Q496J9 1-727): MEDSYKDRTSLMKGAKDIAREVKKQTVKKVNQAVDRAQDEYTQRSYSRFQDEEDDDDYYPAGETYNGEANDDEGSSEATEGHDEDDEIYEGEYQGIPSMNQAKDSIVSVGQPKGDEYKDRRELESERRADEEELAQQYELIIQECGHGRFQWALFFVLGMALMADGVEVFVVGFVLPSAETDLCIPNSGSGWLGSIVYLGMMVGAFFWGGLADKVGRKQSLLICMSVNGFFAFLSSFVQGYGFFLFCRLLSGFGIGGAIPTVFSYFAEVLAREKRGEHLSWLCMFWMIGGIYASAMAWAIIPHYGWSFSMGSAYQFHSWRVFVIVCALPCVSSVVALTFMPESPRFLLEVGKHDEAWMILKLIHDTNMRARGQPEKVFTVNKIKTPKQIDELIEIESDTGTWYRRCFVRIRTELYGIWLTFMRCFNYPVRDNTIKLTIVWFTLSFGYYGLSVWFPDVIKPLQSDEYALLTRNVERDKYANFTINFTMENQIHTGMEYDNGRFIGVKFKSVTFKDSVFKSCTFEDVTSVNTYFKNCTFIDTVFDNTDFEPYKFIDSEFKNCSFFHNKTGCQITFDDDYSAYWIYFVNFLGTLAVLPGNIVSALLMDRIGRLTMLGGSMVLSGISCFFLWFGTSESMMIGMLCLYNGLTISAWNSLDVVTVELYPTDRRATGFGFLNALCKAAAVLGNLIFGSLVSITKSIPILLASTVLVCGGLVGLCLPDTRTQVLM

PC12 = experiment: [3H]ucb 30889 binding in PC12 cells; parameters: species or system rat
Description: (§1) To identify and characterize the LBS in situ, [^3H]ucb 30889 was used to map the LBS within the brain and to study both its cellular and subcellular distribution. For rat brain autoradiography, 25 μm slices were incubated with 1.3 nM [^3H]ucb 30889 for 120 min at 4° C. in 50 mM Tris-HCl buffer (pH 7.4). Binding assays with rat brain membranes and various neuronal cell lines were performed under similar conditions. […] For photolabeling, membranes were incubated with 40 nM [^3H]ucb 30889 for 120 min at 4° C. in the same buffer, followed by irradiation with UV-light for 30 min (Fuks et al., Eur. J. Pharmacol. 478:11-19 (2003)).

[3] = target: T2, levetiracetam binding site (LBS); experiment: [3H]ucb 30889 binding to crude rat brain membranes (kinetic, saturation, competition)
Description: (§2) Binding experiments were conducted on crude rat brain membranes at 4° C. as described in Noyer et al. (Euro. J. Pharmacol. 286:137-146 (1995)). Incubation time for equilibrium studies was 120 min. For kinetic and competition studies, [^3H]ucb 30889 (30 Ci/mmol) was used at a concentration of 1.3 nM in 0.5 ml of a Tris-HCl (pH 7.4) buffer containing 2 mM Mg^2+. Localization of the LBS in brain substructures was assessed by autoradiography on 25 μm thick slices incubated under similar conditions. Slides were then washed twice for 10 min at 4° C. in 50 mM Tris-HCl (pH 7.4) containing 0.5% BSA, dried and exposed for 3 weeks to [^3H]Hyperfilm at −20° C. Non-specific binding (NSB) was determined by the inclusion of 1 mM LEV during the incubation period.

[4] = test system: LBS in peripheral tissues; experiment: [3H]ucb 30889 specific binding in peripheral tissues; settings: 150 μg protein/assay, 1.3 nM radioligand; detection limit Bmax 200 fmol/mg protein
Description: as §2
The limit of detection under the experimental conditions (150 μg of protein/assay and 1.3 nM of radioligand) was a Bmax of 200 fmol/mg protein.

COS-7 = experiment: [3H]ucb 30889 binding in untransfected COS-7 cells; settings: untransfected COS-7 cell line
Description: as §1
In addition, a PC12 cell line subclone, PC12a, which is low in LBS, was used to establish a pool of PC12 cells expressing hSV2A under stable antibiotic selection.

[5] = test system: Rat cerebellar granule neurons; experiment: [3H]ucb 30889 binding in rat cerebellar granule neurons
Description: as §1

SV2A in native membrane = target: T5, SV2A in native membrane (Rattus norvegicus, UniProt Q02563); experiment: Scatchard analysis of [3H]ucb 30889 binding, native rat brain membrane
T5 construct: from tissue

hSV2B = target: T6, hSV2B (Homo sapiens, UniProt Q7L1I2); experiment: [3H]ucb 30889 binding to hSV2B expressed in COS-7 cells; settings: transient COS-7 system
T6 construct: expressed in transfected cells; host or cells: COS-7 cells, transient expression

Mouse cortical neurons = experiment: [3H]ucb 30889 binding in mouse cortical neurons
Description: as §1

[6] = rat brain cortex, 4° C., fast component (25 to 50% of the sites)
[7] = rat brain cortex, 4° C., slow component

T1 sequence (Q7L0J3 whole entry): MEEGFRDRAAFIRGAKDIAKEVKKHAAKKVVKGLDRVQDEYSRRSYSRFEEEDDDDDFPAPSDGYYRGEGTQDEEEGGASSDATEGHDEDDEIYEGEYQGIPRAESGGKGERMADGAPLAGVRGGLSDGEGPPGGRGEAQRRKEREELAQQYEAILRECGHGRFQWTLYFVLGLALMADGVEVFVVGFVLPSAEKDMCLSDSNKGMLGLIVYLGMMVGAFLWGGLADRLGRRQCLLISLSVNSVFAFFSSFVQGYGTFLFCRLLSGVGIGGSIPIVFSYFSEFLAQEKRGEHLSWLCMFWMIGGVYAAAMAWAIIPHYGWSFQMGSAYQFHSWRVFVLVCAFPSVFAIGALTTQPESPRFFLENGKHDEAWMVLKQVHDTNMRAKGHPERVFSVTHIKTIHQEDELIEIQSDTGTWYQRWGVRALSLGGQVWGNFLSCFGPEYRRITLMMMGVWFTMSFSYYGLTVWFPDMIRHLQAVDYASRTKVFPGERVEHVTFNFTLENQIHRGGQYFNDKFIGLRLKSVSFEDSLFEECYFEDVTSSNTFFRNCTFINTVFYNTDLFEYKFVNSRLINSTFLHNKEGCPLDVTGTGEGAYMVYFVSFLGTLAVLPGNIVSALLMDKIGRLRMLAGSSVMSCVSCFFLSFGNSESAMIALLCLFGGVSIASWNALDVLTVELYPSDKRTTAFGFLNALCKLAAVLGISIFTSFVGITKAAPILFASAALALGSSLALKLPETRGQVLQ
T2 sequence (Q02563 whole entry): as the sequence (Q7L0J3 whole entry) above, with D53E, S62A, T71A, E144D, A154T, G440S, S482A, I572V, M634L counted along it
T5 sequence (Q02563 whole entry): as the sequence (Q7L0J3 whole entry) above, with D53E, S62A, T71A, E144D, A154T, G440S, S482A, I572V, M634L counted along it
T3 sequence (Q02563 whole entry): as the sequence (Q7L0J3 whole entry) above, with D53E, S62A, T71A, E144D, A154T, G440S, S482A, I572V, M634L counted along it
T6 sequence (Q7L1I2 whole entry): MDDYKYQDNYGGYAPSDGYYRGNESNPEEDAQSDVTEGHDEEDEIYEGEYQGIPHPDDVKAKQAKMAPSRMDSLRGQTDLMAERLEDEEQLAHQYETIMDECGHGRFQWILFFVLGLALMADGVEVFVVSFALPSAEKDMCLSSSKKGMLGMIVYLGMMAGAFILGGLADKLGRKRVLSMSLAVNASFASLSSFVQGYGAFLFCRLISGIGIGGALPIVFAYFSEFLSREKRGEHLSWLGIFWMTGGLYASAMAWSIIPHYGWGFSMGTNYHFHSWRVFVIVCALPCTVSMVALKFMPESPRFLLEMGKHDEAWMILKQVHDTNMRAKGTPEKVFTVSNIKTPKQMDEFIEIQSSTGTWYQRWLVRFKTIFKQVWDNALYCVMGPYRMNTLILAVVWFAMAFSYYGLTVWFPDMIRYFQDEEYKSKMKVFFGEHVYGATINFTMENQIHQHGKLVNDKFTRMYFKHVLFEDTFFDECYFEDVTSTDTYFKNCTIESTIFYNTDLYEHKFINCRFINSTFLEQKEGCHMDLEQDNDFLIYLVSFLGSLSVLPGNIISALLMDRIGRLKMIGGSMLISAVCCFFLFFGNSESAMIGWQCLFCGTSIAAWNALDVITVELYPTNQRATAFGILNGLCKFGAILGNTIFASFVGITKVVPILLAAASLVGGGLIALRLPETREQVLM

Compound: NC(=O)OCC(COC(N)=O)c1ccccc1 [felbamate]
- competition with [3H]ucb 30889 for binding to SV2A (hSV2A): None of the AEDs at concentrations up to 100 μM, competed
- displacement of LEV binding [1]: do not displace LEV binding

Compound: CC[C@@H](C(N)=O)N1CCCC1=O [levetiracetam, (S)-α-ethyl-2-oxo-1-pyrrolidine acetamide]
- suppression of seizures in the audiogenic-susceptible mouse (audiogenic seizures): unexpected potent ability
- control of refractory partial seizures in adults [2]: both effective and well tolerated
- affinity for the binding site ([1]; listed as LEV): modest affinity
- affinity for the binding site ([1]; listed as [^3H]LEV): only micromolar affinity

Compound: O=C1CN=C(c2ccccc2Cl)c2cc([N+](=O)[O-])ccc2N1 [clonazepam]
- displacement of LEV binding [1]: do not displace LEV binding

Compound: NCC1(CC(=O)O)CCCCC1 [gabapentin]
- competition with [3H]ucb 30889 for binding to SV2A (hSV2A): None of the AEDs at concentrations up to 100 μM, competed
- displacement of LEV binding [1]: do not displace LEV binding

Compound: picrotoxin
- displacement of LEV binding [1]: do not displace LEV binding

Compound: COc1ccc(C(=O)N2CCCC2=O)cc1 [aniracetam]
- displacement of LEV binding [1]: displaced LEV binding

Compound: CCC1(C)CC(=O)NC1=O (stereo not drawn) [ethosuximide]
- competition with [3H]ucb 30889 for binding to SV2A (hSV2A): None of the AEDs at concentrations up to 100 μM, competed
- displacement of LEV binding [1]: competed with LEV

Compound: CC[C@@H](C(N)=O)N1CC(c2cccc(N=[N+]=[N-])c2)CC1=O (stereo partly drawn) [ucb 30889, (2S)-2-[4-(3-azidophenyl)-2-oxopyrrolidin-1-yl]butanamide]
- Kd (soluble SV2A): 82 nM
- difference in CPM between 'hot' and 'hot+cold' samples (PC12bs cells (LBS)): 1.5 to 2 fold
- difference in CPM between 'hot' and 'hot+cold' samples (hSV2A; COS-7 transfected with SV2A-12.2, 1 nM radioligand ± 50 μM cold Levetiracetam, 4° C., 2 hours): 5 fold
- binding above background (hSV2C): no binding above background
- Bmax (PC12): 1.4 pmol/mg
- Kd (PC12): 40 nM
- half-time for association, fast component [3, 6]: 3 ± 2 min
- half-time for dissociation, fast component [3, 6]: 4 ± 1 min
- half-time for association, slow component [3, 7]: 47 ± 13 min
- half-time for dissociation, slow component [3, 7]: 61 ± 15 min
- Bmax (saturation binding) ([3]; rat brain membranes, substance used as radioligand): 5054±704 fmol/mg protein
- specific binding in peripheral tissues [4]: could not be detected
- binding above background (COS-7): no binding above background
- Bmax [5]: 0.7 pmol/mg protein
- Kd [5]: 59 nM
- Kd (SV2A in native membrane): 30 nM
- binding above background (hSV2B): no binding above background
- Bmax (Mouse cortical neurons): 1.4 pmol/mg protein
- Kd (Mouse cortical neurons): 34 nM

Compound: NC(=O)N1c2ccccc2C=Cc2ccccc21 [carbamazepine]
- competition with [3H]ucb 30889 for binding to SV2A (hSV2A): None of the AEDs at concentrations up to 100 μM, competed
- displacement of LEV binding [1]: do not displace LEV binding

Compound: Cc1ccsc1C(=CCCN1CCC[C@@H](C(=O)O)C1)c1sccc1C [tiagabine]
- competition with [3H]ucb 30889 for binding to SV2A (hSV2A): None of the AEDs at concentrations up to 100 μM, competed
- displacement of LEV binding [1]: do not displace LEV binding

Compound: C1CCc2nnnn2CC1 [pentylenetetrazole]
- displacement of LEV binding [1]: competed with LEV

Compound: CCC1(C)CC(=O)NC(=O)C1 [bemegride]
- displacement of LEV binding [1]: competed with LEV

Compound: NS(=O)(=O)Cc1noc2ccccc12 [zonisamide]
- competition with [3H]ucb 30889 for binding to SV2A (hSV2A): None of the AEDs at concentrations up to 100 μM, competed
- displacement of LEV binding [1]: do not displace LEV binding

Compound: O=C1NC(=O)C(c2ccccc2)(c2ccccc2)N1 [phenytoin]
- competition with [3H]ucb 30889 for binding to SV2A (hSV2A): None of the AEDs at concentrations up to 100 μM, competed
- displacement of LEV binding [1]: do not displace LEV binding

Compound: CCCC(C)C1(CC)C(=O)NC(=O)NC1=O (stereo not drawn) [pentobarbital]
- displacement of LEV binding [1]: competed with LEV

Compound: CCCC(CCC)C(=O)O [valproate]
- competition with [3H]ucb 30889 for binding to SV2A (hSV2A): None of the AEDs at concentrations up to 100 μM, competed
- displacement of LEV binding [1]: do not displace LEV binding

Compound: C=CC(N)CCC(=O)O (stereo not drawn) [vigabatrin]
- competition with [3H]ucb 30889 for binding to SV2A (hSV2A): None of the AEDs at concentrations up to 100 μM, competed
- displacement of LEV binding [1]: do not displace LEV binding

Compound: CC[C@@H](C(N)=O)N1CCCC1=O [ucb L060]
- affinity to hSV2A compared with LEV (hSV2A; displacement of [3H]ucb 30889, COS-7): significantly less affinity
